Results on one molecule are retold here after patent EP1695704A1, “Derivatives of aryl (or heteroaryl) azolylcarbinols for the treatment of fibromyalgia” (LABORATORIOS DEL DR. ESTEVE, S.A., priority 2005, dated 2006).

The structures appear in SMILES notation.

Common to all, as to format: in vivo
The test system of test [1] is Unilateral ligature of the sciatic nerve. In words: Neuropathic pain, Bennet model, mechanical response thresholds. The following applies: rats with sciatic nerve ligature; dose-effect study; Figure 1. From the text: Neuropathic Pain - Dose-effect study of Example 1 Phase I (Bennet model): Unilateral ligature of the sciatic nerve (mechanical response thresholds)
According to the Model described by Bennet (Bennet and Xie, Pain 1988, 33, 87-107) a well established model for neuropathic pain, rats were operated with the following surgical procedure,
(§1) Rats were anaesthesized using Pentobarbital. Then the skin was incised. Following that a sciatic nerve ligature was placed and the incision was closed with silk thread.
(§2) In Sham-operated control animals the identical surgical procedures were followed, but the nerve was not ligatured.

Test [2] shares this test system. In words: Neuropathic pain, Bennet model, thermal response thresholds. As to conditions: rats with sciatic nerve ligature; dose-effect study; Figure 2.
From the text: Neuropathic Pain - Dose-effect study of Example 1 Phase I (Bennet model): Unilateral ligature of the sciatic nerve (thermal response thresholds)
According to the Model described by Bennet (Bennet and Xie, Pain 1988, 33, 87-107) a well established model for neuropathic pain, rats were operated with the following surgical procedure:
as §1, §2

In test [3] the test system is ptosis by reserpine in mice. Nature of the test: Depression, Reserpine test. As to conditions: Mus musculus, po. On the procedure: Depression, Reserpine test
Mice were prepared according to the Model described by C.J.E. Niemegeers "Antagonism of Reserpine-like activity" in "Antidepressants", Ed. by S. Fielding, Futura Publishing Co., New York 1975. Pags 73-98 and Garattini S. et al. "Antagonists of Reserpine-induced eyelid ptosis" Med.Exp. 3 : 315-320 (1960):
The inhibition shown by the compound according to example 1 in ptosis by reserpine in mice was: […]

Test [4] has as its system Mice. Nature of the test: Depression, Mice tail Suspension. The following applies: Mus musculus, po. On the procedure: Depression, Mice tail Suspension
Mice were prepared according to the Model described by
The inhibition shown by the compound according to example 1 was: […]

As to `CN(C)CCOC(c1ccccc1)c1ccnn1C` (racemic) [Example 1, (±)-5-{α-[2-(dimethylamino)ethoxy]benzyl}-1-methyl-1H-pirazole], the “effect on vocalization threshold using a mechanical stimulus” value in test [1] is given as “clear dose-dependent effect”. Further, in test [2], the “effect on struggle latency in a low temperature thermal response threshold” value is “clear dose-dependent effect”. For the same molecule, the ED50 in test [3] was 26.2 mg/kg; in test [4] it was 17 mg/kg. The inhibition at 10 mg/kg in test [3] (dose 10 mg/kg p.o.) came to 21%; in test [4] (dose 10 mg/kg p.o.), 38%. The inhibition at 20 mg/kg in test [3] (dose 20 mg/kg p.o.) came out at 47%; in test [4] (dose 20 mg/kg p.o.), 54%. In addition, the inhibition at 40 mg/kg in test [3] (dose 40 mg/kg p.o.) came out at 75%; in test [4] (dose 40 mg/kg p.o.) it was 71%. Moreover, the values for the inhibition at 80 mg/kg in test [3] (dose 80 mg/kg p.o.) and in test [4] (dose 80 mg/kg p.o.) were 75% and 70%, respectively. In test [3] (dose 160 mg/kg p.o.), this molecule showed an inhibition at 160 mg/kg of 71%.

The ED50 is the dose that gives a 50% effect, or the effect in half of the subjects. A high value points to a need for a large dose. By inhibition is commonly meant the relative decrease from the control value, in per cent. Read a high inhibition as a response far below the control.
